Key:
Format in all cases: cell-based, human
GD-OF = experiment: Hyaluronan (HA) production, ELISA; conditions: 50 μg/ml, over 96 h
Experimental: (§1) FIGS. 13A-13B are graphs showing the effect of teprotumumab on bTSH induced hyaluronan (HA) production in GD-OF (FIG. 13A) and fibrocytes (FIG. 13B). GD-OF were treated with or without teprotumumab (50 μg/ml) or human Isotype IgG (5 μg/ml) for 7-9 d and stimulated with bTSH (5 mIU/mL) for graded intervals indicated along the abscissa for 0 to 96h. Media were collected and subjected to HA ELISA. Values were normalized to respective cell layer protein levels and expressed as the mean±SD of three independent determinations. Experiments were repeated three times. FIGS. 13C-13F are graphs showing the divergent pattern of hyaluronan synthase (HAS) isoenzyme induction by bTSH in fibrocytes versus GD-OF and effects of teprotumumab (FIGS. 13C and 13D) and linsitinib (FIGS. 13E and 13F). Confluent monolayers of GD-OF and fibrocytes remained untreated or received teprotumumab (50 μg/ml) or linsitinib (1 μM) and human Isotype IgG for 7-9 d. Some cultures were treated with bTSH (5 mIU/mL) for 6h. Cellular RNA was harvested mRNA was reverse transcribed, and cDNA subjected to quantitative real-time PCR for HAS1 and HAS2. Values were normalized to their respective GAPDH levels and are expressed as the mean±SD of three independent determinations. Experiments were repeated three times. *, P<0.05; **, p<0.01; ***. P<0.001.
(§2) IL-12, IL-23, IL-10, HA and BAFF ELISAs. […]

fibrocytes [1] = experiment: Hyaluronan (HA) production, ELISA; conditions: 50 μg/ml
Experimental: as §1, §2

fibrocytes [2] = experiment: AIRE and thyroid autoantigen (Tg, TPO, NIS) mRNA expression; conditions: 50 μg/mL 7-9 days; bTSH 5 mIU/mL 6 h; vs isotype control mAb
Experimental: FIGS. 9A-9D are graphs showing the effect of teprotumumab on bovine thyrotropin or thyroid-stimulating hormone (bTSH) induced thyroid specific genes thyroglobulin (Tg), sodium iodide symporter (NIS), thyroperoxidase (TPO), and autoimmune regulator protein (AIRE) in fibrocytes. Confluent fibrocyte cultures were treated with or without teprotumumab (50 μg/ml) and human Isotype IgG for 7-9 d, followed by bTSH (5 mIU/mL) for 6 h. Monolayers were washed with PBS and RNA was extracted and reverse transcribed. Harvested cDNA was subjected to quantitative real-time PCR for AIRE (FIG. 9A), Tg (FIG. 9B), TPO (FIG. 9C), and NIS (FIG. 9D) mRNA levels. Values were normalized to their respective GAPDH levels and are expressed as the mean f SD of three independent determinations. Experiments were repeated three times. *, P<0.05; **, p<0.01.
Real-time PCR Confluent fibrocyte and GD-OF cultures were incubated with bTSH (5 mIU/mL), teprotumumab (50 μg/mL) or linsitinib (1 μM) for the time intervals indicated, washed with PBS and RNA was extracted with the Aurum Total RNA Mini Kit (cat. #732-6820, Bio-Rad, Hercules, CA). Cellular RNA (2 μg) was reverse transcribed using QuantiTect Reverse Transcription kit (cat. #205314, Qiagen (Germantown, MD) and real-time PCR was performed using an Applied Biosystems instrument with QuantiTect SYBR Green PCR kit (cat. no. 204143; Qiagen, Frederick, MD). Primer sequences were as follows.

[3] = system: purified, isolated cultured CD3+CD4+ T cells; experiment: IL-17A and INFγ in purified, isolated cultured T cells (flow cytometry)
Experimental: Invariably, a small population of tightly adherent T cells were found in the fibrocyte cultures, consistent with the previous findings. Culture viability was routinely verified to be >90%. CD4^+ T cells were enriched using the CD4 isolation cocktail (Cat #0.130-096-533, Miltenyi Biotec, San Diego, CA) followed by negative selection using a magnetic column (Cat #0.130-042-401) according to manufacturer's protocol. Fibrocytes and isolated T cells were cultured and remained untreated or were incubated with human IgG isotype control (5 μg/ml) or teprotumumab (50 μg/mL) for 7 to 9 days. Single cell suspensions were stained with anti-human CD4, CD3, CD34, MHC-2, CD80, CD86, and PD-L1 (BD Biosciences) for 30 min, rinsed and fixed with CytoPerm/CytoFix (BD). They were then stained with anti-human INFγ and IL-17A for 20 min, rinsed, and subjected to the flow cytometry analysis. Gated CD34^+CXCR4^+ fibrocytes and CD4^+CD3^+ T cells were analyzed using quadrant settings based on negative isotype staining.
In vitro studies of CD34^+ fibrocytes and T cells PBMC and GD-OF monolayers were treated in vitro with human IgG isotype control (5 μg/ml), teprotumumab (50 μg/mL), H7 (5 μg/mL), linsitinib (1 μM), bTSH (5 mIU/mL), M22 (1 μg/mL), or IGF-1 (10 nM) for the intervals indicted in the figure legends in a 37° C., 5% CO2, humidified incubator until confluent. Brefeldin A (0.66 μl/ml), (Golgi Stop™, BD Biosciences), phorbol 12-myristate 13-acetate (PMA) (50 ng/ml) and ionomycin (1 μg/mL) were added for 5 h. Cells were rinsed with flow cytometry buffer (1×PBS, 0.5% BSA, 0.1% sodium azide) and stained with the relevant monoclonal antibodies.

[4] = system: fibrocyte/adherent T cell co-cultures; experiment: IL-17A and INFγ released into culture medium (ELISA); conditions: 50 μg/mL, day 9
Source text: ELISAs Media were collected from cultures treated as indicated and analyzed for concentrations of […] and IL-17A using specific ELISA kits (R&D systems) according to the manufacture's protocol.

## teprotumumab
GD-OF
  effects of bTSH on HA synthesis: enhanced
Fibrocytes [1]
  HA synthesis, bTSH with teprotumumab: synergism
Fibrocytes [2]
  AIRE basal expression and induction by bTSH: inhibited
  NIS basal expression and induction by bTSH: inhibited
  TPO basal expression and induction by bTSH: inhibited
  Tg basal expression and induction by bTSH: inhibited
[3]; 50 μg/mL, 9 d, control 10.23±0.99
  INFγ MFI: 10.32±0.89
[3]; 50 μg/mL, 9 d, control isotype MFI 12.69±0.19
  IL-17A MFI: 12.69±0.31
[3]; purified T cells without fibrocytes
  effect on cytokine (IL-17A, INFγ) expression levels: no such effects
[4]
  reduction of IL-17A released into the culture media: 52%
  reduction of INFγ released into the culture media: 54%

Reference: patent US20250034264A1, “REGULATING T CELL IMMUNE RESPONSE THROUGH IGF-I RECEPTOR (IGF-1R)” (The Regents of the University of Michigan, priority 2021, published 2025)
